Assay results: publication PMC5291098, “Molecular mutagenesis of ppGpp: turning a RelA activator into an inhibitor” (Scientific Reports, 2017)
Where two headings read alike, the source gives them in different places.

Target: T1, E. coli RelA (Escherichia coli, UniProt P0AG20)
T1 construct: made in house
Experiment: Inhibition of [3H]GDP to [3H]ppGpp conversion by E. coli RelA activated by vacant 70S ribosomes and 100 μM ppGpp
Format: biochemical
Conditions: for IC50: 30 nM RelA, 0.5 μM vacant 70S, 100 μM ppGpp; for nHill (Hill coefficient of the titration fit): Supplementary Table 1, 4-parameter logistic model; for Activation of RelA's synthetic activity (in words): ppGpp up to 100 μM, ppApp 50 µM-1 mM, thio-ppGpp 100 µM (Supplementary Figure 1); for Activity against RelA (in words) / Inhibitory effect on RelA (in words): RelA:70S:ppGpp system; for Inhibitory effect on RelA (in words): concentrations up to 1 mM
Protocol: For the initial characterization of compounds, we followed the inhibition of [^3H] GDP conversion to [^3H] ppGpp catalyzed by E. coli RelA in a simplified system in which RelA’s activity was induced by vacant 70S ribosomes and 100 μM of ppGpp[15]. Unlabeled ppGpp was added to reaction mixtures in order to linearize the kinetics of [^3H] ppGpp synthesis due to an activating effect on the RelA enzyme. We used a targeted library of 69 nucleotides belonging to several structural classes: ‘true’ ppGpp analogues; Relacin and its derivatives; pyrrolidine, azetidine, piperidine and acyclic phosphonates. Chemical structures of tested compounds and titrations in the RelA:70S:ppGpp system are presented in Supplementary Table 1.
Detailed description of experimental procedures can be found in Supplementary Text. Biochemical assays utilize in vitro translation[58] and stringent response[15] systems from E. coli purified components. Experiments were performed in HEPES:Polymix[58] buffer with either 5 (for enzymatically assembled initiation complexes) or 15 mM (for vacant 70 S, as well as non-enzymatically assembled programmed ribosomes) Mg^2+. Expression and purification of E. faecalis RelQ was performed as per Gaca (2015) and colleagues. GTPase and ppGpp synthesis were followed using TLC separation and radiochemical detection of ^3H-labelled nucleotides. Multiple round in vitro transcription assays were performed as per Bernardo et al.[49] with minor modifications. Inhibition efficiency (IC50) was calculated using 4-parameter logistic model (Hill equation) as per Sebaugh[60].
Thin layer chromatography (TLC) analysis of nucleotide mixtures
Both EF-G GTPase reaction and ppGpp synthesis by RelA were followed by TLC analysis followed by scintillation counting according to Mechold and colleagues, with modifications1. Time points from the reaction mixtures (5 μl, see below for details) were quenched by addition 4 μl 70% formic acid supplemented with a cold nucleotide standard used for UV-shadowing (10 mM GDP and 10 mM GTP) and spotted on PEI-TLC plates (Macherey-Nagel). TLC was run in buffer, plates dried, cut into sections guided by UV-shadowing and 3H radioactivity was quantified by scintillation counting in Optisafe-3 (Fisher) scintillation cocktail on Perkin Elmer Tricarb 2810TR counter. Conversion of substrate to product was quantified as described in Shyp et al. (2012)2.
Enzymatic assays with E. coli RelA
Screening: all experiments were performed in HEPES:Polymix, Mg2+ of 5 mM, 37 […]
μM ppGpp was pre-incubated at 37° C for 2 min and then reaction started by addition of 1 mM ATP, time points (5 μl) taken, quenched with formic acid and analyzed by TLC. Inhibition efficiency (IC50) was calculated using 4-parameter logistic model (Hill equation) as per Sebaugh (2011)3. […]

[1] = 0.3 mM [3H]GDP, 1 mM ATP, read-out: IC50
[2] = 5 mM Mg2+, 37 °C, no unit beside the value, titration axis in mM, read-out: IC50 (Supplementary Table 1, example titration)

T1 sequence (P0AG20 whole entry): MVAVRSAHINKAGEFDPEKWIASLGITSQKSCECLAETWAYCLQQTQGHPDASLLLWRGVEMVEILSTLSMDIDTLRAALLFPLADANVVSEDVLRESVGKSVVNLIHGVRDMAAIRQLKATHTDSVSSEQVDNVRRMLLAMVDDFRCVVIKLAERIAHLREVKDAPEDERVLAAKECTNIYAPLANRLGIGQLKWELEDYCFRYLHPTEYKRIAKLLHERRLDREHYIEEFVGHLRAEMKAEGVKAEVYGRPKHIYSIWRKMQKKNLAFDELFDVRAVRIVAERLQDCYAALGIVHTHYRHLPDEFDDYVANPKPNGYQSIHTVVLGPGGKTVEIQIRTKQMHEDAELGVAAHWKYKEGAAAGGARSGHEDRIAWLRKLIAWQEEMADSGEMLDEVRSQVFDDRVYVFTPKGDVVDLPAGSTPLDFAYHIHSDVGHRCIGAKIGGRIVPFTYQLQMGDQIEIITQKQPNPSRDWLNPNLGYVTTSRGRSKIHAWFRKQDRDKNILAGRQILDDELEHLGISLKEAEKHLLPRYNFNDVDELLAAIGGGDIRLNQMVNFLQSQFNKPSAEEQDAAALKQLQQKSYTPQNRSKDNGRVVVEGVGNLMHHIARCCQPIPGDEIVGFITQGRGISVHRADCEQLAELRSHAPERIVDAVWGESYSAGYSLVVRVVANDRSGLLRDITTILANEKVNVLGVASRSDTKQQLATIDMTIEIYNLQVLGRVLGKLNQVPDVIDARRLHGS

| SMILES | IC50 [1] | nHill (Hill coefficient of the titration fit) | further results |
| --- | --- | --- | --- |
| Nc1nc2c(ncn2C2OC(COP(=O)(O)OP(=O)(O)O)C(OP(=O)(O)OP(=O)(O)O)C2O)c(=S)[nH]1 (stereo not shown) [6-thio-ppGpp, reference compound] | 21.3 ± 2.1 µM | 1.86 ± 0.29 | IC50 (5 mM Mg2+, 37 °C, no unit beside the value, titration axis in µM, read-out: IC50 (Supplementary Table 1, example titration)): 21.2 ± 2.08 µM; Activation of RelA's synthetic activity (in words): neither ppApp nor 6-thio-ppGpp activate; Activation of RelA's synthetic activity (in words) (listed as thio-ppGpp): do not activate |
| Nc1nc2c(ncn2C2CC(OC(=O)NCC(=O)NCC(=O)O)C(COC(=O)NCC(=O)NCC(=O)O)O2)c(=O)[nH]1 (stereo not shown) [di-iBu-Relacin] | – | – | Activity against RelA (in words): compromises its activity against RelA |
| Nc1nc2c(ncn2C2CC(OC(=O)NCC(=O)NCC(=O)O)C(COC(=O)NCC(=O)NCC(=O)O)O2)c(=S)[nH]1 (stereo not shown) [DR-5732] | – | – | Activity against RelA (in words): virtually no activity; Activity against RelA (in words) (listed as thio-di-iBu-Relacin): complete inactivation |
| Nc1nc2c(ncn2C2CCN(C(=O)CP(=O)(O)O)CC2)c(=O)[nH]1 [DR-M011] | 234 ± 67 µM | 0.62 ± 0.13 | IC50 [2]: 230 ± 70 µM |
| NC(=O)C1=CN([C@@H]2O[C@H](COP(=O)(O)OP(=O)(O)OC[C@H]3O[C@@H](n4cnc5c(N)ncnc54)[C@H](O)[C@@H]3O)[C@@H](O)[C@H]2O)C=CC1 [NADH, reference compound] | – | – | Inhibitory effect on RelA (in words): None of the compounds showed any inhibitory effect |
| CC(C)OP(=O)(O)CN1CC[C@H](n2cnc3c(=O)[nH]c(N)nc32)C1 [DR-4518] | 1710 ± 660 µM | – | – |
| Nc1nc2c(ncn2C2CC(OCP(=O)(O)O)C(COCP(=O)(O)O)O2)c(=O)[nH]1 (stereo not shown) [DR-5799C] | 515 ± 392 µM | 2.2 ± 2.5 | – |
| Nc1nc2c(ncn2[C@@H]2CCN(C(=O)P(=O)(O)O)C2)c(=O)[nH]1 [DR-5267B] | 652 ± 194 µM | 0.95 ± 0.26 | – |
| CC(C)C(=O)Nc1nc2c(ncn2C2OC(COP(=O)(O)OCP(=O)(O)O)C(OP(=O)(O)OCP(=O)(O)O)C2O)c(=O)[nH]1 (stereo not shown) [DR-4239, 2-N-isobutyryl-guanosine 3’,5’-di(phosphonomethoxyphosphate)] | 101 ± 8 µM | 2.13 ± 0.3 | IC50 [2]: 102 ± 8 µM |
| Nc1nc2c(ncn2[C@H]2CCN(C(=O)P(=O)(O)O)C2)c(=O)[nH]1 [DR-4520] | 200 ± 22 µM | 1.46 ± 0.2 | – |
| Nc1ncnc2c1ncn2C1CCN(C(=O)P(=O)(O)O)CC1 [DR-5994A] | – | 1 ± 0.088 | IC50 [2]: 300 ± 30 µM |
| Nc1nc2c(ncn2C2OC(COP(=O)(O)OP(=O)(O)O)C(OP(=O)(O)OP(=O)(O)O)C2O)c(=O)[nH]1 (stereo not shown) [ppGpp, guanosine tetraphosphate] | 720 ± 440 µM | – | – |
| CC(C)C(=O)Nc1nc2c(ncn2[C@@H]2O[C@H](COP(=O)(O)OCP(=O)(O)O)[C@@H](OP(=O)(O)OCP(=O)(O)O)[C@H]2OC2CCCCO2)c(=O)[nH]1 (stereo partly shown) [DR-4238, 2-N-isobutyryl-2’-tetrahydropyranylguanosine 3’,5’-di(phosphonomethoxyphosphate)] | – | 1.85 ± 0.2 | IC50 [2]: 100 ± 6 µM |
| NC(=O)C1=CN([C@@H]2O[C@H](COP(=O)(O)OP(=O)(O)OC[C@H]3O[C@@H](n4cnc5c(N)ncnc54)[C@H](OP(=O)(O)O)[C@@H]3O)[C@@H](O)[C@H]2O)C=CC1 [NADPH, reference compound] | – | – | Inhibitory effect on RelA (in words): None of the compounds showed any inhibitory effect |
| Nc1nc2c(ncn2C2OC(COCP(=O)(O)O)C(OCP(=O)(O)O)C2O)c(=O)[nH]1 (stereo not shown) [DR-6331] | 76 ± 6 µM | 1.5 ± 0.2 | – |
| Nc1nc2c(ncn2CCNCC(=O)P(=O)(O)O)c(=O)[nH]1 [DR-5164] | 1400 ± 120 µM | – | – |
| Nc1ncnc2c1ncn2[C@@H]1O[C@@H]2COP(=O)(O)O[C@H]3[C@@H](O)[C@H](n4cnc5c(N)ncnc54)O[C@@H]3COP(=O)(O)O[C@H]2[C@H]1O [c-di-AMP, reference compound] | – | – | Inhibitory effect on RelA (in words): None of the compounds showed any inhibitory effect |
| Nc1nc2c(ncn2[C@@H]2O[C@@H]3COP(=O)(O)O[C@H]4[C@@H](O)[C@H](n5cnc6c(=O)[nH]c(N)nc65)O[C@@H]4COP(=O)(O)O[C@H]3[C@H]2O)c(=O)[nH]1 [c-di-GMP, reference compound] | – | – | Inhibitory effect on RelA (in words): None of the compounds showed any inhibitory effect |
| Nc1nc2c(ncn2[C@@H]2O[C@@H]3COP(=O)(O)O[C@H]4[C@@H](O)[C@H](n5cnc6c(N)ncnc65)O[C@@H]4COP(=O)(O)O[C@H]3[C@H]2O)c(=O)[nH]1 [c-di-GAMP, reference compound] | – | – | Inhibitory effect on RelA (in words): None of the compounds showed any inhibitory effect |
